In assay [1] the target is Histone deacetylase 1 (Homo sapiens) (UniProt Q13547). Kind of assay: Inhibition of HDAC1 in human U937 cells at 5 uM […]. It counts as cell-based. As to conditions: U-937.
Assay [2] concerns the target Histone deacetylase (Homo sapiens) (UniProt Q13547+O15379+Q9UBN7+Q92769+Q9UQL6+Q8WUI4+Q9BY41+Q96DB2+P56524+Q9UKV0+Q969S8). Kind of assay: Inhibition of HDAC in human U937 cells assessed as induction of histone H3 acetylation at 5 uM after 30 hrs by cytofluorimetric analysis. Particulars: U-937. It counts as cell-based.
Assay [3] addresses T1, Protein deacetylase HDAC6 (Homo sapiens) (UniProt Q9UBN7).
T1 sequence (whole entry): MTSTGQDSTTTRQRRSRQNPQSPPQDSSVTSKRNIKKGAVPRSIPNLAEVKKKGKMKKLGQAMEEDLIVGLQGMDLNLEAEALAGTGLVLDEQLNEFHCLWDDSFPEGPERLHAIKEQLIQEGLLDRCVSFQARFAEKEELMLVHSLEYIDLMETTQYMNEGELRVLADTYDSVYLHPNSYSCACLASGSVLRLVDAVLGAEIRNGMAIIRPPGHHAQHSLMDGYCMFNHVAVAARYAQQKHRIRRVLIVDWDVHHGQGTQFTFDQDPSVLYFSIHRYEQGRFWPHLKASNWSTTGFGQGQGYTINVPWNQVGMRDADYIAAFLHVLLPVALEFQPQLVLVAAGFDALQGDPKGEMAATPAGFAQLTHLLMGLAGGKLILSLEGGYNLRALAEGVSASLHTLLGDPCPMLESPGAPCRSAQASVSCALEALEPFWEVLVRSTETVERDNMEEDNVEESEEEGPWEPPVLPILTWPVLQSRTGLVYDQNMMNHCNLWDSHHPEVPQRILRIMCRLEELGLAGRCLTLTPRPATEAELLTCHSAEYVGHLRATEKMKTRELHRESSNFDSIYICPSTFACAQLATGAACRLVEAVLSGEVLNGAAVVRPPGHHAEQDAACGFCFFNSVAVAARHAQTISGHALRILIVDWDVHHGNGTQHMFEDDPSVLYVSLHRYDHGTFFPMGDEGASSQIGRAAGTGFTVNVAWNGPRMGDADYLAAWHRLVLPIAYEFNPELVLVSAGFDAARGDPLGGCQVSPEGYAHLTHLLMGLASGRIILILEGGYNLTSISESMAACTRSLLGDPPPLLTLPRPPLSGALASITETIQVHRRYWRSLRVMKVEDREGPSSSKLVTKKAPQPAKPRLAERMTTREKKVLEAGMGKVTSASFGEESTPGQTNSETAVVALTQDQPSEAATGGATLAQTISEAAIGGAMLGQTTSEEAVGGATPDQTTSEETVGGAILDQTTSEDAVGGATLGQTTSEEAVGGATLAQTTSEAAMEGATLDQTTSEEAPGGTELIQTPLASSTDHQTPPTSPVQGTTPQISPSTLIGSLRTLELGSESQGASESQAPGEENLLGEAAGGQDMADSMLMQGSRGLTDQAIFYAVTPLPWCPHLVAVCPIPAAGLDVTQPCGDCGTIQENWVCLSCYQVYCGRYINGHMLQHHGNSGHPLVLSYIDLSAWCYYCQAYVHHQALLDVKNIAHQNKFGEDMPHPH
The assay can be described thus: Inhibition of HDAC6 in human U937 cells assessed as induction of alpha-tubulin acetylation at 5 uM after 30 hrs by cytofluorimetric analysis. It is filed as cell-based. As to conditions: U-937.

The target of assay [4] is Protein kinase C alpha type (Homo sapiens) (UniProt P17252). The assay can be described thus: Inhibition of PKCalpha in human U937 cells assessed as p21WAF1/CIP1 expression at 5 uM after 30 hrs by cytofluorimetric analysis. It is filed as cell-based. As to conditions: U-937.
Assay [5] has as its system U-937. The assay can be described thus: Induction of apoptosis in human U937 cells at 5 uM after 30 hrs. It is filed as functional, cell-based.
Assay [6] has as its target Histone deacetylase 4 (Homo sapiens) (UniProt P56524). The assay can be described thus: Inhibition of HDAC4 in human U937 cells at 5 uM […]. It counts as cell-based. Particulars: U-937.
For assay [7], the target named is T2, NAD-dependent protein deacetylase sirtuin-1 (Homo sapiens) (UniProt Q96EB6).
T2 sequence (whole entry): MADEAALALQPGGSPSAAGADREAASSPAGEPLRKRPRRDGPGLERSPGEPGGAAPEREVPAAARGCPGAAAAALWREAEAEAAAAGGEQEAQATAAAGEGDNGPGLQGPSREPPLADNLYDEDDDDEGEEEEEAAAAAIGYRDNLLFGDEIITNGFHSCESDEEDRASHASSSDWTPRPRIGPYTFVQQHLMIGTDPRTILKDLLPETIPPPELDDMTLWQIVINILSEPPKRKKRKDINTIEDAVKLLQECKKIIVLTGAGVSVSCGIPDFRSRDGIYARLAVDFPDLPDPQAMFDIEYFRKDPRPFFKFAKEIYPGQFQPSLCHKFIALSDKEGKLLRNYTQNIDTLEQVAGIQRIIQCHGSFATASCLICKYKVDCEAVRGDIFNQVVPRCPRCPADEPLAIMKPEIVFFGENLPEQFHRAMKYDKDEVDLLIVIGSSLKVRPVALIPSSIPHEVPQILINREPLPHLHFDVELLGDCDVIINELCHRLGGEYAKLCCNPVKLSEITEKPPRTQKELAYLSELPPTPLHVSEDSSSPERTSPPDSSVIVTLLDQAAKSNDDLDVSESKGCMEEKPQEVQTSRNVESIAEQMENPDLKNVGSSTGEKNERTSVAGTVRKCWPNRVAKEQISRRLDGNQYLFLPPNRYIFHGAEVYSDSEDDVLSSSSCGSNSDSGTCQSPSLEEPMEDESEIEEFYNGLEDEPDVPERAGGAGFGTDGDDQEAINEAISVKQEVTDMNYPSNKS
Kind of assay: Inhibition of human recombinant SIRT1 using KI-177 as substrate at 5 uM after 30 mins by fluorescence assay.

Assay [8] deals with T2, NAD-dependent protein deacetylase sirtuin-1 (Homo sapiens). The assay can be described thus: Inhibition of SIRT1 in human MCF7 cells assessed as p53 acetylation on lysine 382 at 5 uM after 24 hrs by Western blot analysis. It is filed as cell-based.
Assay [9] concerns U-937. The assay can be described thus: Effect on DNMT1 level in human U937 cells at 0.5 to 5 uM after 24 hrs by Western blot analysis. It is filed as functional, cell-based. For orientation: In western blotting, separated proteins are transferred to a membrane and probed.
Assay [10] deals with DNA (cytosine-5)-methyltransferase 1 (Homo sapiens) (UniProt P26358). Kind of assay: Inhibition of recombinant DNMT1 using S-adenosyl-L-[methyl-3H]methionine as substrate at 5 uM after 2 hrs by radioactive assay.
Assay [11] concerns the target T2, NAD-dependent protein deacetylase sirtuin-1 (Homo sapiens). The assay can be described thus: Inhibition of SIRT1 in human MCF7 cells assessed as p53 acetylation on lysine 382 after 24 hrs by Western blot analysis. It is filed as cell-based.
Assay [12] relates to U-937. The assay can be described thus: Induction of cell differentiation in human U937 cells assessed as CD11c expression at 5 uM after 30 hrs by cytofluorimetric analysis. It counts as functional, cell-based.
The target of assay [13] is T2, NAD-dependent protein deacetylase sirtuin-1 (Homo sapiens). Kind of assay: Inhibition of SIRT1 in human U937 cells assessed as H3 acetylation on lysine K9 at 5 uM after 24 hrs by Western blot analysis. It counts as cell-based. As to conditions: U-937.
The target is the same in assay [14]. The assay can be described thus: Inhibition of SIRT1 in human U937 cells assessed as H3 acetylation on lysine K56 at 5 uM after 24 hrs by Western blot analysis. It counts as cell-based. Particulars: U-937.
For assay [15], the target named is DNA (cytosine-5)-methyltransferase 1 (Homo sapiens) (UniProt P26358). The assay can be described thus: Inhibition of DNMT1 human u937 cells assessed as reactivation of p16 expression at 0.5 to 5 uM after 24 hrs by Western blot analysis.

The results in this text go back to ChEMBL document CHEMBL2177007, “Indole-derived psammaplin A analogues as epigenetic modulators with multiple inhibitory activities” (J Med Chem, 2012).

Activity calls are given as the source filed them. No cut-off for these calls is given here.

DNA (cytosine-5)-methyltransferase 1 (Homo sapiens), sequence (P26358 whole entry): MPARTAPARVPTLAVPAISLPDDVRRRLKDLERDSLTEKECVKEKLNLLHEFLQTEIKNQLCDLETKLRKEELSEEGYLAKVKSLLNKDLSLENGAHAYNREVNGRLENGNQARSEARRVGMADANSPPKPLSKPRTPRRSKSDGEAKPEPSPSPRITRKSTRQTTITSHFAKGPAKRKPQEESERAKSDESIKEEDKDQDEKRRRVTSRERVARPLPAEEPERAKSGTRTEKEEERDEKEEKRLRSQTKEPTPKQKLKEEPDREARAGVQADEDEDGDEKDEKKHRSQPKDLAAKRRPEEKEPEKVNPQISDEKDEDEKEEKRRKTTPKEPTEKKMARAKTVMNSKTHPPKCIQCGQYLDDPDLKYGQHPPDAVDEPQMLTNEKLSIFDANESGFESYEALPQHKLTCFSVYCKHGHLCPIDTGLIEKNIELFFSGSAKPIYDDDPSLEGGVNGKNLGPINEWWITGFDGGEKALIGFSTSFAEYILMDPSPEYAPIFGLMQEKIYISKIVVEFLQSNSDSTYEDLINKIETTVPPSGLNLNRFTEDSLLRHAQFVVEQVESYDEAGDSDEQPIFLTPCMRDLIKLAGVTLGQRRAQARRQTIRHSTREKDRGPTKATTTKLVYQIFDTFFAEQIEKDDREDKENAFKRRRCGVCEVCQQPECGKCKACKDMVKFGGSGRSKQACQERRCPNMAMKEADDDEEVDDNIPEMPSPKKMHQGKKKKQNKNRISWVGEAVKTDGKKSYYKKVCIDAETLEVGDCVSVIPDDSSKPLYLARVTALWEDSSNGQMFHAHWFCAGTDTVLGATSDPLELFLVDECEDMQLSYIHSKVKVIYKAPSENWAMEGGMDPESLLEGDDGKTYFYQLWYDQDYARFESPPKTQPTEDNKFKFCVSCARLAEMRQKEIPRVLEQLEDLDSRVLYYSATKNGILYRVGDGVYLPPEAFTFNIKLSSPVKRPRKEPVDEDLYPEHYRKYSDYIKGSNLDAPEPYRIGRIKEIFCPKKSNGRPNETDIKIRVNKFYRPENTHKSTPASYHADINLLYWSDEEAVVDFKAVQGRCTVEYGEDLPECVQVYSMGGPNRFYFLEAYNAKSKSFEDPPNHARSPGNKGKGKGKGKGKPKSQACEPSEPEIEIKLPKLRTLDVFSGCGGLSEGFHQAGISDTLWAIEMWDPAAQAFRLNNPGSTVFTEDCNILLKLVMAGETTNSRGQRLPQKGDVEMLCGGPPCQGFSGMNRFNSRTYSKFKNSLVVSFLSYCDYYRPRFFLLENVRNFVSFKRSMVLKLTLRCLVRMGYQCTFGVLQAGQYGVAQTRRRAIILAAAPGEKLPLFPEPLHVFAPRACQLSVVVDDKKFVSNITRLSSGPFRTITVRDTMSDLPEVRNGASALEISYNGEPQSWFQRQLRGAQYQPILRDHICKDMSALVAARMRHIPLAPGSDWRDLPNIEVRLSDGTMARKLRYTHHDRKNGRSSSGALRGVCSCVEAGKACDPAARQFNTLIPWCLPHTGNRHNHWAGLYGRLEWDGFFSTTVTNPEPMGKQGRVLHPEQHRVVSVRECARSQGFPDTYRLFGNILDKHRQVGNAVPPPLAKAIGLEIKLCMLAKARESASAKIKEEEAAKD
Histone deacetylase 4 (Homo sapiens), sequence (P56524 whole entry): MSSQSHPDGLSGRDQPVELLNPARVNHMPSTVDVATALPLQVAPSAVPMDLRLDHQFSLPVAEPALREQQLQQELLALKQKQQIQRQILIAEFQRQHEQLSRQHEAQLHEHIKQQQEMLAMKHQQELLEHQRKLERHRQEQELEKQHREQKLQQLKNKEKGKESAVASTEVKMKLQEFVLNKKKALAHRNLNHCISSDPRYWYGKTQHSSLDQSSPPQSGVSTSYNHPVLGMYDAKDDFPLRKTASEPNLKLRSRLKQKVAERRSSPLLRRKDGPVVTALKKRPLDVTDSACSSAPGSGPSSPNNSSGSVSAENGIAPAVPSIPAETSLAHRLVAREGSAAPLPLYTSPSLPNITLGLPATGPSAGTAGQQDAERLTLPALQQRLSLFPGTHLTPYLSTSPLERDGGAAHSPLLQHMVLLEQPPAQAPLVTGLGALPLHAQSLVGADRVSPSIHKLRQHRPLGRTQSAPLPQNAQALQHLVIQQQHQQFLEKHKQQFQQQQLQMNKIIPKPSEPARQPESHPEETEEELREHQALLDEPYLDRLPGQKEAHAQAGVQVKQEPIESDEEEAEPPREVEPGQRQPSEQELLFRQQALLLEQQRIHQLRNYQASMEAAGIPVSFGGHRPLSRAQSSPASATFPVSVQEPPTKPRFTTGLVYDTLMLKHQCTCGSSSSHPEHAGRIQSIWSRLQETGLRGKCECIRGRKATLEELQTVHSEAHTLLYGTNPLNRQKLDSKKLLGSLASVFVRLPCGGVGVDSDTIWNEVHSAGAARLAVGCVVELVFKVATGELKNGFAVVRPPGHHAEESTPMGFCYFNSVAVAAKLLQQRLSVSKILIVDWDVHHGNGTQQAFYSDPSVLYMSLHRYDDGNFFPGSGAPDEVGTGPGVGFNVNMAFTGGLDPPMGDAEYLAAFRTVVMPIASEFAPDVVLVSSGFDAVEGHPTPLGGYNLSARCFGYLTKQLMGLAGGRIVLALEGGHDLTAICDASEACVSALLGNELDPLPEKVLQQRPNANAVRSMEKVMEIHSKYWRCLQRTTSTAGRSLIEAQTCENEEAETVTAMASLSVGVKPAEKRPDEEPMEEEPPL
Histone deacetylase 1 (Homo sapiens), sequence (Q13547 whole entry): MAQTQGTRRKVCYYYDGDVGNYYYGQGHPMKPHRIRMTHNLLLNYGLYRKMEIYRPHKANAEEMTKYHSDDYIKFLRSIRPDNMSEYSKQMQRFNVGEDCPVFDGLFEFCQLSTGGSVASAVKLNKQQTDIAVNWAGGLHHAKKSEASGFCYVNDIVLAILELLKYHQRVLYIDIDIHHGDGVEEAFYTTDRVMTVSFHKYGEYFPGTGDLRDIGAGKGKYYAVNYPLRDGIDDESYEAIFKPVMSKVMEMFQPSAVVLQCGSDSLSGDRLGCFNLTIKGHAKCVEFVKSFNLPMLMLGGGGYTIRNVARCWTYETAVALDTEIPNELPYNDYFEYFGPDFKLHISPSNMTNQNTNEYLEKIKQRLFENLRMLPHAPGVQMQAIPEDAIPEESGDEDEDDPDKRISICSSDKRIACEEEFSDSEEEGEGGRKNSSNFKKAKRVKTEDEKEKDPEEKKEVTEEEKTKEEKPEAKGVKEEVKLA

What is called inhibition is the percentage by which the read-out fell short of the control. With `O=C(NCCSSCCNC(=O)/C(Cc1c[nH]c2ccc(Cl)cc12)=N/O)/C(Cc1c[nH]c2ccc(Cl)cc12)=N/O`, the inhibition entry in [1], in assay [2], in assay [3], in [4] and in assay [6] was “Active” each time. In assay [5], the outcome was Active.
Consider `O=C(NCCCCCSSCCCCCNC(=O)/C(Cc1c[nH]c2ccc(Br)cc12)=N/O)/C(Cc1c[nH]c2ccc(Br)cc12)=N/O`, for which the inhibition in [1] worked out at 40%; in assay [6], 20%. Besides, the inhibition entry in [3] was “Active”.
In the case of `O=C(NCCSSCCNC(=O)/C(Cc1c[nH]c2ccc(I)cc12)=N/O)/C(Cc1c[nH]c2ccc(I)cc12)=N/O`, the inhibition entry in assay [1], in [2], in assay [3], in [4] and in [6] was “Active” in each case. For the same molecule, the outcome in assay [5] was Active.
With `O=C(NCCSSCCNC(=O)/C(Cc1c[nH]c2ccccc12)=N/O)/C(Cc1c[nH]c2ccccc12)=N/O`, the inhibition in [1] was 40%; in [6], 20%. The inhibition entry in assay [2], in assay [3], in assay [4], in assay [7] and in assay [8] was “Active” each time. Also, the result in [9] was inactive.
Turning to `O=C(NCCSSCCNC(=O)/C(Cc1c[nH]c2cccc(Br)c12)=N/O)/C(Cc1c[nH]c2cccc(Br)c12)=N/O`, the inhibition entry in [3] is “Active”.
The same measure, in the same setting: in the case of `O=C(NCCSSCCNC(=O)/C(Cc1c[nH]c2ccc(Br)cc12)=N/OCc1ccccc1)/C(Cc1c[nH]c2ccc(Br)cc12)=N/OCc1ccccc1` it was “Active”.
Turning to `O=C(CCc1c[nH]c2ccc(Br)cc12)NCCSSCCNC(=O)CCc1c[nH]c2ccc(Br)cc12`, the inhibition entry in assay [1], in [2], in assay [3] and in [4] was “Active” each time. Further, the outcome in assay [5] was Active. Besides, in assay [10], the inhibition entry is “inactive”. The inhibition entry in assay [11] was “Dose-dependent effect”. Also, the outcome in assay [9] was inactive.
Regarding `O=C(NCCCSSCCCNC(=O)/C(Cc1c[nH]c2ccc(Br)cc12)=N/O)/C(Cc1c[nH]c2ccc(Br)cc12)=N/O`, in assay [3], the inhibition entry was “Active”. The outcome in assay [12] was Active.
For `O=C(NCCCCSSCCCCNC(=O)/C(Cc1c[nH]c2ccc(Br)cc12)=N/O)/C(Cc1c[nH]c2ccc(Br)cc12)=N/O`, the results for the inhibition in [1] and in assay [6] were 40% and 20%, respectively. The inhibition entry in assay [2], in [7] and in [8] was “inactive” throughout. Moreover, the inhibition entry in assay [3], in [13], in [14] and in assay [15] was “Active” each time. Also, the outcome in assay [12] and in assay [5] was Active. Besides, in [9], the outcome was inactive.
Regarding `O=C(O)[C@H](Cc1c[nH]c2ccccc12)N1C(=O)c2ccccc2C1=O`, in assay [10], the inhibition result is “Active”.
For `O=C(NCCSSCCNC(=O)/C(Cc1cn(Cc2ccc(Br)cc2)c2ccc(Br)cc12)=N/O)/C(Cc1cn(Cc2ccc(Br)cc2)c2ccc(Br)cc12)=N/O`, the inhibition entry in assay [3], in [7], in assay [13] and in [14] was “Active” throughout. Further, in [9], the outcome was inactive.
Take `Cn1cc(CCC(=O)NCCSSCCNC(=O)CCc2cn(C)c3ccc(Br)cc23)c2cc(Br)ccc21`: the inhibition entry in [3] is “Active”.
As to `COc1ccc2[nH]cc(C/C(=N\O)C(=O)NCCSSCCNC(=O)/C(Cc3c[nH]c4ccc(OC)cc34)=N/O)c2c1`, the inhibition result in assay [1], in assay [2], in [3], in [4] and in [6] was “Active” throughout. For the same molecule, the outcome in assay [12] and in [5] was Active.
Take `COCCNC(=O)/C(Cc1c[nH]c2ccc(Br)cc12)=N/O`: the inhibition result in [3] was “Active”. In addition, the inhibition result in [7], in assay [13] and in assay [14] was “inactive” each time. Further, the result in assay [9] was inactive.
Regarding `O=C(NCCSSCCNC(=O)/C(Cc1c[nH]c2ccc(F)cc12)=N/O)/C(Cc1c[nH]c2ccc(F)cc12)=N/O`, the inhibition entry in assay [1] and in [6] was “Active” throughout. Further, the inhibition entry in assay [2], in [3] and in assay [4] was “inactive” in each case. Further, the outcome in [5] was Active.
Regarding `O=C(NCCCCCCCCNC(=O)/C(Cc1c[nH]c2ccc(Br)cc12)=N/O)/C(Cc1c[nH]c2ccc(Br)cc12)=N/O`, the inhibition entry in assay [3], in [7], in [13], in assay [14] and in assay [15] was “Active” throughout. Further, the inhibition result in assay [10] is “inactive”. In addition, the outcome in assay [9] was inactive.
For `CO/N=C(\Cc1c[nH]c2ccc(Br)cc12)C(=O)NCCSSCCNC(=O)/C(Cc1c[nH]c2ccc(Br)cc12)=N/OC`, the inhibition result in [1], in [3], in assay [10], in assay [6] and in [15] was “Active” each time. In addition, the result in assay [9] was inactive.
